{
  "source": "patent US20230303561A1",
  "about": "“PYRIMIDINONE DERIVATIVE, PREPARATION METHOD THEREOF AND USE THEREOF IN RESISTING MYCOBACTERIUM TUBERCULOSIS INFECTION” (INSTITUTE OF MEDICINAL BIOTECHNOLOGY, CHINESE ACADEMY OF …, priority 2020, published 2023)",
  "test_system": "MTB H37Rv",
  "assay": "Bacteriostasis experiment: MIC in 96-well plate, two-fold dilution method",
  "format": "cell-based, Mycobacterium tuberculosis",
  "conditions": "for MIC: Mycobacterium tuberculosis, ATCC 27294 / H37Rv, 240 h, read-out: Inhibitory activity against Mycobacterium tuberculosis, MIC, MTB H37Rv; for anti-mycobacterium tuberculosis MIC compared with the positive control drug INH: MTB H37Rv, statement on Table 1 data",
  "key": {"[1]": {"conditions": "MTB H37Rv (ATCC 27294), 7H9 medium, 37° C., about 10 days"}},
  "data": [
    {"compound": "CCCOc1ccc(C2CC(=O)Nc3nc(SC)[nH]c(=O)c32)cc1", "note": "(stereo not drawn) [LSL-7-36, 2-methylmercapto-5-(4-propoxyphenyl)-5,6-dihydropyrido[2,3-d]pyrimidin-4,7(3H,8H)-dione]", "values": [
      {"measurement": "MIC", "setting": "[1]", "result": 32, "unit": "µg/mL"}
    ]},
    {"compound": "CCCSc1nc2c(c(=O)[nH]1)C(c1ccc(OC)c(O)c1)CC(=O)N2", "note": "(stereo not drawn) [LSL-7-38, 2-propylmercapto-5-(3-hydroxy-4-methoxyphenyl)-5,6-dihydropyrido[2,3-d]pyrimidin-4,7(3H,8H)-dione]", "values": [
      {"measurement": "MIC", "setting": "[1]", "result": 1, "unit": "µg/mL"}
    ]},
    {"compound": "COc1ccc(C2CC(=O)Nc3nc(SC)[nH]c(=O)c32)cc1O", "note": "(stereo not drawn) [LSL-7-39, 2-methylmercapto-5-(3-hydroxy-4-methoxyphenyl)-5,6-dihydropyrido[2,3-d]pyrimidin-4,7(3H,8H)-dione]", "values": [
      {"measurement": "MIC", "setting": "[1]", "result": 16, "unit": "µg/mL"}
    ]},
    {"compound": "CCCSc1nc2c(c(=O)[nH]1)C(c1ccc(O)c(O)c1)CC(=O)N2", "note": "(stereo not drawn) [LSL-7-42, 2-propylmercapto-5-(3,4-dihydroxyphenyl)-5,6-dihydropyrido[2,3-d]pyrimidin-4,7(3H,8H)-dione]", "values": [
      {"measurement": "MIC", "setting": "[1]", "result": 32, "unit": "µg/mL"}
    ]},
    {"compound": "COc1cc(C2CC(=O)Nc3nc(SC)[nH]c(=O)c32)cc(OC)c1OC", "note": "(stereo not drawn) [LSL-7-43, 2-methylmercapto-5-(3,4,5-trimethoxyphenyl)-5,6-dihydropyrido[2,3-d]pyrimidin-4,7(3H,8H)-dione]", "values": [
      {"measurement": "MIC", "setting": "[1]", "result": "> 64", "unit": "µg/mL"}
    ]},
    {"compound": "CCCSc1nc2c(c(=O)[nH]1)C(c1cc(OC)c(OC)c(OC)c1)CC(=O)N2", "note": "(stereo not drawn) [LSL-7-44, 2-propylmercapto-5-(3,4,5-trimethoxyphenyl)-5,6-dihydropyrido[2,3-d]pyrimidin-4,7(3H,8H)-dione]", "values": [
      {"measurement": "MIC", "setting": "[1]", "result": 16, "unit": "µg/mL"}
    ]},
    {"compound": "CCCSc1nc2c(c(=O)[nH]1)C(c1ccc(OC)c(OC)c1)CC(=O)N2", "note": "(stereo not drawn) [LSL-7-46, 2-propylmercapto-5-(3,4-dimethoxyphenyl)-5,6-dihydropyrido[2,3-d]pyrimidin-4,7(3H,8H)-dione]", "values": [
      {"measurement": "MIC", "setting": "[1]", "result": 8, "unit": "µg/mL"}
    ]},
    {"compound": "CCCSc1nc2c(c(=O)[nH]1)C(c1ccc(Cl)c([N+](=O)[O-])c1)CC(=O)N2", "note": "(stereo not drawn) [LSL-7-48, 2-propylmercapto-5-(3-nitro-4-chlorophenyl)-5,6-dihydropyrido[2,3-d]pyrimidin-4,7(3H,8H)-dione]", "values": [
      {"measurement": "MIC", "setting": "[1]", "result": 2, "unit": "µg/mL"}
    ]},
    {"compound": "CSc1nc2c(c(=O)[nH]1)C(c1ccc([N+](=O)[O-])cc1)CC(=O)N2", "note": "(stereo not drawn) [LSL-7-49, 2-methylmercapto-5-(4-nitrophenyl)-5,6-dihydropyrido[2,3-d]pyrimidin-4,7(3H,8H)-dione]", "values": [
      {"measurement": "MIC", "setting": "[1]", "result": 64, "unit": "µg/mL"}
    ]},
    {"compound": "CCCSc1nc2c(c(=O)[nH]1)C(c1ccc([N+](=O)[O-])cc1)CC(=O)N2", "note": "(stereo not drawn) [LSL-7-50, 2-propylmercapto-5-(4-nitrophenyl)-5,6-dihydropyrido[2,3-d]pyrimidin-4,7(3H,8H)-dione]", "values": [
      {"measurement": "MIC", "setting": "[1]", "result": 64, "unit": "µg/mL"}
    ]},
    {"compound": "COc1ccc(C2CC(=O)Nc3nc(SC)[nH]c(=O)c32)c(O)c1", "note": "(stereo not drawn) [LSL-9-01, 2-methylmercapto-5-(2-hydroxy-4-methoxyphenyl)-5,6-dihydropyrido[2,3-d]pyrimidin-4,7(3H,8H)-dione]", "values": [
      {"measurement": "MIC", "setting": "[1]", "result": 8, "unit": "µg/mL"}
    ]},
    {"compound": "CCCSc1nc2c(c(=O)[nH]1)C(c1ccc(OC)cc1O)CC(=O)N2", "note": "(stereo not drawn) [LSL-9-02, 2-propylmercapto-5-(2-hydroxy-4-methoxyphenyl)-5,6-dihydropyrido[2,3-d]pyrimidin-4,7(3H,8H)-dione]", "values": [
      {"measurement": "anti-mycobacterium tuberculosis MIC compared with the positive control drug INH", "result": "equivalent to that of the positive control drug INH"},
      {"measurement": "MIC", "setting": "[1]", "result": 0.5, "unit": "µg/mL"}
    ]},
    {"compound": "CSc1nc2c(c(=O)[nH]1)C(c1cccc([N+](=O)[O-])c1)CC(=O)N2", "note": "(stereo not drawn) [LSL-9-09, 2-methylmercapto-5-(3-nitrophenyl)-5,6-dihydropyrido[2,3-d]pyrimidin-4,7(3H,8H)-dione]", "values": [
      {"measurement": "Inhibitory activity against Mycobacterium tuberculosis, MIC, MTB H37Rv", "setting": "[1]", "result": 64, "unit": "µg/mL"}
    ]},
    {"compound": "CCCSc1nc2c(c(=O)[nH]1)C(c1cccc([N+](=O)[O-])c1)CC(=O)N2", "note": "(stereo not drawn) [LSL-9-10, 2-propylmercapto-5-(3-nitrophenyl)-5,6-dihydropyrido[2,3-d]pyrimidin-4,7(3H,8H)-dione]", "values": [
      {"measurement": "MIC", "setting": "[1]", "result": 4, "unit": "µg/mL"}
    ]},
    {"compound": "C=CCSc1nc2c(c(=O)[nH]1)C(c1ccc(OC)c(O)c1)CC(=O)N2", "note": "(stereo not drawn) [LSL-9-15, 2-allylmercapto-5-(3-hydroxy-4-methoxyphenyl)-5,6-dihydropyrido[2,3-d]pyrimidin-4,7(3H,8H)-dione]", "values": [
      {"measurement": "MIC", "setting": "[1]", "result": 2, "unit": "µg/mL"}
    ]},
    {"compound": "C=CCSc1nc2c(c(=O)[nH]1)C(c1ccc(OC)c(OC)c1)CC(=O)N2", "note": "(stereo not drawn) [LSL-9-17, 2-allylmercapto-5-(3,4-dimethoxyphenyl)-5,6-dihydropyrido[2,3-d]pyrimidin-4,7(3H,8H)-dione]", "values": [
      {"measurement": "MIC", "setting": "[1]", "result": 8, "unit": "µg/mL"}
    ]},
    {"compound": "CCCSc1nc2c(c(=O)[nH]1)C(c1ccc(I)cc1)CC(=O)N2", "note": "(stereo not drawn) [LSL-9-19, 2-propylmercapto-5-(4-iodophenyl)-5,6-dihydropyrido[2,3-d]pyrimidin-4,7(3H,8H)-dione]", "values": [
      {"measurement": "MIC", "setting": "[1]", "result": "> 64", "unit": "µg/mL"}
    ]},
    {"compound": "CCCSc1nc2c(c(=O)[nH]1)C(c1ccc(OC)c(O)c1O)CC(=O)N2", "note": "(stereo not drawn) [LSL-9-23, 2-propylmercapto-5-(2,3-dihydroxy-4-methoxyphenyl)-5,6-dihydropyrido[2,3-d]pyrimidin-4,7(3H,8H)-dione]", "values": [
      {"measurement": "MIC", "setting": "[1]", "result": 64, "unit": "µg/mL"}
    ]},
    {"compound": "CCCOc1ccc(C2CC(=O)Nc3nc(SCCC)[nH]c(=O)c32)cc1O", "note": "(stereo not drawn) [LSL-9-25, 2-propylmercapto-5-(3-hydroxy-4-propoxyphenyl)-5,6-dihydropyrido[2,3-d]pyrimidin-4,7(3H,8H)-dione]", "values": [
      {"measurement": "MIC", "setting": "[1]", "result": 4, "unit": "µg/mL"}
    ]},
    {"compound": "CCCSc1nc2c(c(=O)[nH]1)C(c1ccc(Br)cc1)CC(=O)N2", "note": "(stereo not drawn) [LSL-9-26, 2-propylmercapto-5-(4-bromophenyl)-5,6-dihydropyrido[2,3-d]pyrimidin-4,7(3H,8H)-dione]", "values": [
      {"measurement": "MIC", "setting": "[1]", "result": 2, "unit": "µg/mL"}
    ]},
    {"compound": "CCCSc1nc2c(c(=O)[nH]1)C(c1ccc(F)cc1)CC(=O)N2", "note": "(stereo not drawn) [LSL-9-27, 2-propylmercapto-5-(4-fluorophenyl)-5,6-dihydropyrido[2,3-d]pyrimidin-4,7(3H,8H)-dione]", "values": [
      {"measurement": "MIC", "setting": "[1]", "result": "> 64", "unit": "µg/mL"}
    ]},
    {"compound": "CCCOc1ccc(C2CC(=O)Nc3nc(SCCC)[nH]c(=O)c32)c(O)c1", "note": "(stereo not drawn) [LSL-9-29, 2-propylmercapto-5-(2-hydroxy-4-propoxyphenyl)-5,6-dihydropyrido[2,3-d]pyrimidin-4,7(3H,8H)-dione]", "values": [
      {"measurement": "anti-mycobacterium tuberculosis MIC compared with the positive control drug INH", "result": "equivalent to that of the positive control drug INH"},
      {"measurement": "MIC", "setting": "[1]", "result": 0.5, "unit": "µg/mL"}
    ]},
    {"compound": "CCCSc1nc2c(c(=O)[nH]1)C(c1ccc(OCc3ccccc3)cc1)CC(=O)N2", "note": "(stereo not drawn) [LSL-9-31, 2-propylmercapto-5-(4-benzyloxyphenyl)-5,6-dihydropyrido[2,3-d]pyrimidin-4,7(3H,8H)-dione]", "values": [
      {"measurement": "MIC", "setting": "[1]", "result": 16, "unit": "µg/mL"}
    ]},
    {"compound": "CCCSc1nc2c(c(=O)[nH]1)C(c1ccc(Oc3ccccc3)cc1)CC(=O)N2", "note": "(stereo not drawn) [LSL-9-32, 2-propylmercapto-5-(4-phenoxyphenyl)-5,6-dihydropyrido[2,3-d]pyrimidin-4,7(3H,8H)-dione]", "values": [
      {"measurement": "MIC", "setting": "[1]", "result": "> 64", "unit": "µg/mL"}
    ]},
    {"compound": "CCCSc1nc2c(c(=O)[nH]1)C(c1cc(O)c(O)c(O)c1)CC(=O)N2", "note": "(stereo not drawn) [LSL-9-33, 2-propylmercapto-5-(3,4,5-trihydroxyphenyl)-5,6-dihydropyrido[2,3-d]pyrimidin-4,7(3H,8H)-dione]", "values": [
      {"measurement": "MIC", "setting": "[1]", "result": 64, "unit": "µg/mL"}
    ]},
    {"compound": "CCCSc1nc2c(c(=O)[nH]1)C(c1ccc(OC(F)(F)F)cc1)CC(=O)N2", "note": "(stereo not drawn) [LSL-9-35, 2-propylmercapto-5-(4-trifluoromethoxyphenyl)-5,6-dihydropyrido[2,3-d]pyrimidin-4,7(3H,8H)-dione]", "values": [
      {"measurement": "MIC", "setting": "[1]", "result": 64, "unit": "µg/mL"}
    ]},
    {"compound": "CCCSc1nc2c(c(=O)[nH]1)C(c1ccc3ncccc3c1)CC(=O)N2", "note": "(stereo not drawn) [LSL-9-36, 2-propylmercapto-5-(quinolin-6-yl)-5,6-dihydropyrido[2,3-d]pyrimidin-4,7(3H,8H)-dione]", "values": [
      {"measurement": "anti-mycobacterium tuberculosis MIC compared with the positive control drug INH", "result": "equivalent to that of the positive control drug INH"},
      {"measurement": "MIC", "setting": "[1]", "result": 0.125, "unit": "µg/mL"}
    ]}
  ]
}
